Measured values taken from patent US9521847B2, “Synergistic weed control from applications of pyridine carboxylic acid herbicides and synthetic auxin herbicides and/or auxin transport inhibitors” (Dow AgroSciences LLC, priority 2014, dated 2016).
Read-outs that look alike come from different tables or passages of the source.

Key:
[1] = tested on: pigweed (AMARE, Amaranthus retroflexus); experiment: Greenhouse postemergence trial, % visual injury; assay type: in vivo
[2] = tested on: winter rape (BRSNW, Brassica napus); experiment: Greenhouse postemergence trial, % visual injury; assay type: in vivo
[3] = tested on: common lambsquarters (CHEAL, Chenopodium album L.); experiment: Greenhouse postemergence trial, % visual injury; assay type: in vivo; conditions: Chenopodium album, post-emergence, read-out: % visual injury Obs
[4] = tested on: kochia (KCHSC, Kochia scoparia); experiment: Greenhouse postemergence trial, % visual injury; assay type: in vivo
Procedure: Following the protocol in Example 1, compound 1 and compound 2 were combined with 2,4 D EHE (EC) and applied to kochia (KCHSC, Kochia scoparia) and the phytotoxicity of the herbicidal compositions was measured.
Following the protocol in Example 1, compound 1 (EC) and Compound 2 (SC) were combined with diflufenzopyr and applied to kochia (Kochia scoparia, KCHSC) and the phytotoxicity of the herbicidal composition was measured.

[5] = tested on: velvetleaf (Abutilon theophrasti, ABUTH); experiment: Greenhouse postemergence trial, % visual injury; assay type: in vivo
[6] = tested on: nutsedge (Cyperus esculentus, CYPES); experiment: Greenhouse postemergence trial, % visual injury; assay type: in vivo; conditions: CYPES, 70 g ae/ha
[7] = tested on: sunflower (Helianthus annus, HELAN); experiment: Greenhouse postemergence trial, % visual injury; assay type: in vivo
[8] = tested on: wild buckwheat (Polygonum convolvulus, POLCO); experiment: Greenhouse postemergence trial, % visual injury; assay type: in vivo
[9] = tested on: Russian thistle (Salsola iberica, SASKR); experiment: Greenhouse postemergence trial, % visual injury; assay type: in vivo; conditions: fluroxypyr-MHE 70 g ae/ha
[10] = tested on: wild mustard (Sinapis arvensis, SINAR); experiment: Greenhouse postemergence trial, % visual injury; assay type: in vivo; conditions: fluroxypyr-MHE 70 g ae/ha
[11] = tested on: blackgrass (Alopecurus myosuroides, ALOMY); experiment: Greenhouse postemergence trial, % visual injury; assay type: in vivo; conditions: 70 g ae/ha
[12] = tested on: wild oat (Avena fatua, VEFA); experiment: Greenhouse postemergence trial, % visual injury; assay type: in vivo; conditions: AVEFA
[13] = tested on: large crabgrass (Digitaria sanguinalis, DIGSA); experiment: Greenhouse postemergence trial, % visual injury; assay type: in vivo; conditions: Digitaria sanguinalis, post-emergence, read-out: % visual injury, Obs
[14] = tested on: barnyardgrass (Echinochloa crus-galli, ECHCG); experiment: Greenhouse postemergence trial, % visual injury; assay type: in vivo; conditions: fluroxypyr-MHE 100 g ae/ha
[15] = tested on: kochia (KCHSC, Kochia scoparia); experiment: Greenhouse postemergence trial, % visual injury; assay type: in vivo; remark: listed apart in the source
[16] = tested on: Canadian thistle (CIRAR, Cirsium arvense); experiment: Greenhouse postemergence trial, % visual injury; conditions: Cirsium arvense, post-emergence;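 note: plants sprayed at second to third true leaf stage, injury scored visually 20-22 d later against solvent-blank sprayed controls, 0 meaning no injury and 100 complete kill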
[17] = tested on: spring rape (Brassica napus, BRSNN); experiment: Greenhouse postemergence trial, % visual injury; conditions: Brassica napus, post-emergence
[18] = tested on: poinsettia (Euphorbia heterophylla, EPHHL); experiment: Greenhouse postemergence trial, % visual injury; conditions: Euphorbia heterophylla, post-emergence, read-out: % visual injury, Obs
[19] = tested on: wild pansy (Viola tricolor, VIOTR); experiment: Greenhouse postemergence trial, % visual injury; conditions: for % visual injury, Obs: VIOTR
[20] = tested on: ivyleaf morningglory (Ipomoea hederacea, IPOHE); experiment: Greenhouse postemergence trial, % visual injury
spring barley (HORVS) = experiment: Greenhouse postemergence trial, crop phytotoxicity (% visual injury)
winter wheat (TRZAW) [21] = experiment: as above; conditions: for % visual injury, Obs: TRZAW
maize (ZEAMX) = experiment: as above; conditions: for % visual injury, Obs: ZEAMX
common rice (ORYSA) = experiment: as above
[22] = tested on: grain sorghum (Sorghum vulgare, SORVU); experiment: Greenhouse postemergence trial, % visual injury; assay type: in vivo
[23] = tested on: common chickweed (Stellaria media, STEME); experiment: Greenhouse postemergence trial, % visual injury; assay type: in vivo; conditions: aminopyralid-TIPA 5 g ae/ha
[24] = tested on: ivyleaved speedwell (Veronica hederifolia, VERHE); experiment: Greenhouse postemergence trial, % visual injury; assay type: in vivo; conditions: aminocyclopyrachlor 100 g ae/ha
[25] = tested on: kochia (KCHSC, Kochia scoparia); experiment: Patio postemergence trial, % visual injury; assay type: in vivo; conditions: 20-22 d
Procedure: (§1) The plants were grown for 7-36 days (d) on a fenced, open-air patio. Nutrients and water were added on a regular basis.
(§2) Temperatures and photoperiods were dependent on the natural weather conditions during the trials. Weather conditions during trials were conducive for plant growth and development.

[26] = tested on: pigweed (AMARE, Amaranthus retroflexus); experiment: Patio postemergence trial, % visual injury; assay type: in vivo; conditions: 20-22 d
Procedure: as §1, §2

winter wheat (TRZAW) [27] = experiment: Patio postemergence trial, crop phytotoxicity (% visual injury); assay type: in vivo, Triticum aestivum; conditions: 20-22 d
Procedure: as §1, §2

[28] = tested on: CIRAR = Cirsium arvense (Canadian thistle); experiment: Small plot field trial (Canada), % visual injury; assay type: in vivo; conditions: 35 g ae/ha alone, 46-64 DAA
Procedure: (§3) Trials were established as randomized complete blocks with 3-4 replicates. Individual plots were 2-3 meters (m) wide and 8-10 m long. Applications were made with backpack or tractor-mounted sprayers delivering a spray volume output of 100 liters per hectare (L/ha) using pressurized carbon dioxide (CO2) as a propellant. Compound 7 was combined with 2,4 D EHE (660 g ae/L EC formulation) and applied to spring wheat (TRZAS), and the phytotoxicity of the herbicidal compositions was measured. In addition, the efficacy of the herbicidal composition on Canadian thistle ([…], Cirsium arvense), […] scoparia), mallow ([…] pusilla), wild buckwheat (POLCO, Polygonum convolvulus), and lady's thumb (POLPE, Polygonum persicaria) was evaluated.

[29] = tested on: MALPU = Malva pusilla (mallow); experiment: Small plot field trial (Canada), % visual injury; assay type: in vivo; conditions: 35 g ae/ha alone, 26-33 DAA
Procedure: as §3

[30] = tested on: kochia (KCHSC, Kochia scoparia); experiment: Small plot field trial (Canada), % visual injury; assay type: in vivo; conditions: 35 g ae/ha alone, 46-64 DAA
Procedure: as §3

[31] = tested on: lady's thumb (POLPE, Polygonum persicaria); experiment: Small plot field trial (Canada), % visual injury; assay type: in vivo; conditions: 35 g ae/ha alone, 14-16 DAA
Procedure: as §3

[32] = tested on: wild buckwheat (POLCO, Polygonum convolvulus); experiment: Small plot field trial (Canada), % visual injury; assay type: in vivo; conditions: 35 g ae/ha alone, 15 DAA
Procedure: as §3

spring wheat (TRZAS) = experiment: Small plot field trial (Canada), crop phytotoxicity (% visual injury); assay type: in vivo, Triticum aestivum; conditions: 35 g ae/ha alone
Excerpt: Small plot field trials were established in Canada to evaluate efficacy and crop safety of Compound 7 with 2,4-D EHE. Trials were established as randomized complete blocks with 3-4 replicates. Individual plots were 2-3 meters (m) wide and 8-10 m long. Applications were made with backpack or tractor-mounted sprayers delivering a spray volume output of 100 liters per hectare (L/ha) using pressurized carbon dioxide (CO2) as a propellant. Compound 7 was combined with 2,4 D EHE (660 g ae/L EC formulation) and applied to spring wheat (TRZAS), and the phytotoxicity of the herbicidal compositions was measured. In addition, the efficacy of the herbicidal composition on Canadian thistle ([…], Cirsium arvense), kochia (KCHSC, Kochia scoparia), mallow (MALPU, Marva pusilla), wild buckwheat (POLCO, Polygonum convolvulus), and lady's thumb (POLPE, Polygonum persicaria) was evaluated.

winter wheat (TRZAW) [33] = conditions: Triticum aestivum (winter wheat), in vivo
[34] = read-out: % visual injury (Obs)

CCCCCCC(C)OC(=O)COc1nc(F)c(Cl)c(N)c1Cl (stereo not shown) [Fluroxypyr-MHE, fluroxypyr-meptyl, reference compound]
% visual injury, Obs ([1]; AMARE, 70 g ae/ha): 70% | % visual injury (Obs) ([1]; fluroxypyr-MHE 70 g ae/ha): 50% | % visual injury (Obs) ([2]; fluroxypyr-MHE 70 g ae/ha): 95% | pest or weed control at 70 g/ha [3]: 10% | % visual injury (Obs) ([4]; fluroxypyr-MHE 100 g ae/ha): 65% | pest or weed control at 70 g/ha ([5]; Abutilon theophrasti, post-emergence, read-out: % visual injury, Obs): 40% | % visual injury (Obs) ([5]; fluroxypyr-MHE 100 g ae/ha): 70% | % visual injury, Obs [6]: 0% | % visual injury (Obs) ([7]; fluroxypyr-MHE 100 g ae/ha): 80% | % visual injury (Obs) ([8]; fluroxypyr-MHE 70 g ae/ha): 75% | % visual injury (Obs) [9]: 95% | % visual injury (Obs) [10]: 85% | % visual injury, Obs [11]: 0% | % visual injury, Obs ([12]; 70 g ae/ha): 0% | pest or weed control at 70 g/ha [13]: 33% | % visual injury (Obs) [14]: 0% | % visual injury (Obs) ([15]; fluroxypyr-MHE 70 g ae/ha): 93% | pest or weed control at 100 g/ha ([16]; read-out: % visual injury (Obs), fluroxypyr-MHE 100 g ae/ha): 60% | pest or weed control at 70 g/ha ([16]; read-out: % visual injury Obs, 70 g ae/ha alone, 20-22 d): 10% | plant injury at 100 g/ha [17, 34]: 85% | plant injury at 70 g/ha ([17]; read-out: % visual injury, Obs): 15% | pest or weed control at 70 g/ha [18]: 18% | % visual injury, Obs ([19]; 70 g ae/ha): 80% | % visual injury (Obs) ([19]; fluroxypyr-MHE 100 g ae/ha): 80% | pest or weed control at 70 g/ha ([20]; Ipomoea, post-emergence, read-out: % visual injury, Obs): 80% | % visual injury Obs (spring barley (HORVS); crop, 70 g ae/ha alone, 20-22 d): 20% | % visual injury (Obs) (spring barley (HORVS); fluroxypyr-MHE 70 g ae/ha): 0% | % visual injury, Obs (winter wheat (TRZAW) [21]; 70 g ae/ha): 0% | % visual injury (Obs) (winter wheat (TRZAW) [21]; fluroxypyr-MHE 70 g ae/ha): 0% | % visual injury (Obs) (winter wheat (TRZAW) [21]; fluroxypyr-MHE 100 g ae/ha): 0% | % visual injury, Obs (maize (ZEAMX); 70 g ae/ha): 0% | % visual injury (Obs) (maize (ZEAMX); fluroxypyr-MHE 100 g ae/ha): 0% | % visual injury (Obs) (common rice (ORYSA); fluroxypyr-MHE 100 g ae/ha): 0%

Nc1cc(Cl)nc(C(=O)O)c1Cl [aminopyralid-TIPA, aminopyralid-triisopropanolammonium, reference compound]
% visual injury (Obs) ([7]; aminopyralid-TIPA 5 g ae/ha): 60% | % visual injury (Obs) ([8]; aminopyralid-TIPA 5 g ae/ha): 65% | % visual injury, Obs ([22]; SORVU, 5 g ae/ha): 5% | % visual injury (Obs) ([22]; aminopyralid-TIPA 5 g ae/ha): 0% | % visual injury (Obs) [23]: 60% | % visual injury, Obs ([12]; 5 g ae/ha): 0% | pest or weed control at 5 g/ha [13]: 5% | % visual injury (Obs) ([15]; aminopyralid-TIPA 5 g ae/ha): 10% | pest or weed control at 5 g/ha ([16]; read-out: % visual injury (Obs), aminopyralid-TIPA 5 g ae/ha): 60% | plant injury at 5 g/ha [17, 34]: 10% | pest or weed control at 5 g/ha [18]: 18% | % visual injury, Obs ([19]; 5 g ae/ha): 48% | % visual injury (Obs) ([19]; aminopyralid-TIPA 5 g ae/ha): 10% | % visual injury (Obs) ([20]; aminopyralid-TIPA 5 g ae/ha): 60% | % visual injury, Obs (winter wheat (TRZAW) [21]; 5 g ae/ha): 0% | % visual injury (Obs) (winter wheat (TRZAW) [21]; aminopyralid-TIPA 5 g ae/ha): 0% | % visual injury, Obs (maize (ZEAMX); 5 g ae/ha): 3% | % visual injury (Obs) (maize (ZEAMX); aminopyralid-TIPA 5 g ae/ha): 0% | % visual injury (Obs) (common rice (ORYSA); aminopyralid-TIPA 5 g ae/ha): 0%

Nc1nc(C2CC2)nc(C(=O)O)c1Cl [aminocyclopyrachlor, reference compound]
% visual injury (Obs) [24]: 75%

Nc1c(F)c(-c2ccc3cc[nH]c3c2F)nc(C(=O)[O-])c1Cl.[K+] [compound 7]
pest or weed control at 8.75 g/ha ([1]; Amaranthus retroflexus, post-emergence, read-out: % visual injury Obs): 70% | % visual injury Obs ([2]; 8.75 g ae/ha alone, 20-22 d): 58% | pest or weed control at 5 g/ha [3]: 80% | pest or weed control at 8.75 g/ha [3]: 60% | pest or weed control at 10 g/ha [3]: 100% | % visual injury Obs ([4]; 8.75 g ae/ha alone, 20-22 d): 55% | % visual injury Obs ([25]; 8.75 g ae/ha alone): 5% | % visual injury Obs ([25]; 17.5 g ae/ha alone): 0% | % visual injury Obs ([26]; 8.75 g ae/ha alone): 30% | % visual injury Obs ([26]; 17.5 g ae/ha alone): 40% | % visual injury Obs (winter wheat (TRZAW) [27]; 8.75 g ae/ha alone): 5% | % visual injury Obs (winter wheat (TRZAW) [27]; 17.5 g ae/ha alone): 0% | % visual injury Obs [28]: 20% | % visual injury Obs [29]: 15% | % visual injury Obs [30]: 62% | % visual injury Obs [31]: 20% | % visual injury Obs [32]: 50% | % visual injury Obs (spring wheat (TRZAS); 6-8 DAA): 3% | % visual injury Obs (spring wheat (TRZAS); 14-16 DAA): 3% | % visual injury Obs (winter wheat (TRZAW) [33]): 0% | pest or weed control at 5 g/ha ([16]; read-out: % visual injury Obs, 5 g ae/ha alone, 20-22 d): 50% | pest or weed control at 8.75 g/ha ([16]; read-out: % visual injury Obs, 8.75 g ae/ha alone, 20-22 d): 25% | pest or weed control at 10 g/ha ([16]; read-out: % visual injury Obs, 10 g ae/ha alone, 20-22 d): 65%
